Laboratory results from US8889701B1, “Substituted (S)-(2R,3R,5R)-3-hydroxy-(5-pyrimidin-1-yl)tetrahydrofuran-2-ylmethyl aryl phosphoramidate” (Alla Chem, LLC, priority 2013, dated 2014).
pEC50: −log10 of the molar value.

Tested on: HCV replicon (genotype 1b, Con1 isolate) in human hepatoma cell line Huh7
Assay: HCV replicon assay (antiviral activity, anti-HCV core ELISA readout)
Assay type: cell-based
Settings: Hepatitis C virus, Huh-7, 72 h, read-out: EC50, activity against HCV genotype 1b
Description: The HCV replicon assay was used to determine the antiviral activity of substituted phosphoramidic acid esters of the general formula 1, 1.1, 1.2, 2, 2.1, and 2.2 (test compounds). The test cell line used in the HCV Replicon Assay was a human hepatoma cell line Huh7 incorporating the HCV replicon (genotype 1b, Con1 isolate). 96-well plates were seeded with cells at a density of 7.5×10^3 cells per well in 50 μl of assay media. Test compound stock solution was made up freshly in assay medium (DMEM 1×, Cellgro; cat. #10-013-CV) as a 2× stock. A total of 11 serial 3-fold dilutions of test compounds were prepared from the 2× stock in assay media ranging from 20 nM-0.2 pM final concentrations. At least 4 hours after cells were seeded, compound treatment was initiated by adding 50 μl of compound dilution to the plates. […] The final DMSO concentration was 0.5%. Cells and inhibitors incubated for 3 days at 37° C./5% CO2. Media was removed from the plates via gentle tapping. Cells were fixed with 100 μl 1:1 acetone:methanol for 1 minute, washed three times with PBS buffer, and then blocked with 150 μl/well 10% Fetal Bovine Serum (FBS) in PBS for 1 hour at room temperature. Cells were washed three times with PBS buffer, and incubated with 100 μl/well anti-hepatitis C core mAb (Affinity BioReagents; cat. # MA1-080, 1 mg/ml stock diluted 1:4,000 in 10% FBS-PBS) for 2 hours at 37° C. Cells were washed three times with PBS and incubated with 100 μl/well HRP-Goat Anti-Mouse antibody (diluted 1:3.500 in 10% FBS-PBS) for 1 hour at 37° C. Cells were washed three times with PBS and developed with 100 μl/well OPD solution (1 OPD tablet+12 ml citrate/phosphate buffer+5 μl 30% H2O2 per plate) for 30 minutes in the dark at room temperature. The reaction was stopped with 100 μl/well of 2N H2SO4, and absorbance measured at A490 X on a Victor^3 V 1420 multilabel counter (Perkin Elmer). The EC50 values were calculated for test compounds from the resulting best-fit equations determined by Xlfit software.

| SMILES | pEC50 |
| --- | --- |
| CN1CCCC(NP(=O)(OC[C@H]2O[C@@H](n3ccc(N)nc3=O)C(F)(F)[C@@H]2O)Oc2ccccc2)C1=O (stereo partly drawn) [1(8), ((2R,3R,5R)-5-(4-amino-2-oxopyrimidin-1(2H)-yl)-4,4-difluoro-3-hydroxytetrahydrofuran-2-yl)methyl phenyl 1-methyl-2-oxopiperidin-3-ylphosphoramidate] | 6.06 |
| C[C@@]1(F)[C@H](O)[C@@H](COP(=O)(N[C@H]2CCOC2=O)Oc2ccccc2)O[C@H]1n1ccc(=O)[nH]c1=O (stereo partly drawn) [1.1.(2), ((2R,3R,4R,5R)-5-(2,4-dioxo-3,4-dihydropyrimidin-1(2H)-yl)-4-fluoro-3-hydroxy-4-methyltetrahydrofuran-2-yl)methyl phenyl (S)-2-oxotetrahydrofuran-3-ylphosphoramidate] | 6.56 |
| CN1CCC(NP(=O)(OC[C@H]2O[C@@H](n3ccc(=O)[nH]c3=O)C(F)(F)[C@@H]2O[Si](C)(C)C(C)(C)C)Oc2ccccc2)C1=O (stereo partly drawn) [1.1.(4), ((2R,3R,5R)-3-(tert-butyldimethylsilyloxy)-5-(2,4-dioxo-3,4-dihydropyrimidin-1(2H)-yl)-4,4-difluorotetrahydrofuran-2-yl)methyl phenyl 1-methyl-2-oxopyrrolidin-3-ylphosphoramidate] | 7.39 |
| CN1CCCC(NP(=O)(OC[C@H]2O[C@@H](n3ccc(NC(=O)OCc4ccccc4)nc3=O)C(F)(F)[C@@H]2OC(=O)OCc2ccccc2)Oc2ccccc2)C1=O (stereo partly drawn) [1(7), benzyl 1-((2R,4R,5R)-4-(benzyloxycarbonyloxy)-3,3-difluoro-5-(((1-methyl-2-oxopiperidin-3-ylamino)(phenoxy)phosphoryloxy)methyl)tetrahydrofuran-2-yl)-2-oxo-1,2-dihydropyrimidin-4-ylcarbamate] | 6.26 |
| CC(=O)Nc1ccn([C@@H]2O[C@H](CO[P@@](=O)(N[C@H]3CCOC3=O)Oc3ccccc3)[C@@H](OC(C)=O)C2(F)F)c(=O)n1 [1(4), (2R,3R,5R)-5-(4-acetamido-2-oxopyrimidin-1(2H)-yl)-4,4-difluoro-2-(((S)—((S)-2-oxotetrahydrofuran-3-ylamino)(phenoxy)phosphoryloxy)methyl)tetrahydrofuran-3-yl acetate] | 7.38 |
| CC(C)OC(=O)[C@H](C)NP(=O)(OC[C@H]1O[C@@H](n2ccc(=O)[nH]c2=O)[C@](C)(F)[C@@H]1O)Oc1ccccc1 (some centres unmarked) [PSI-7851, reference compound] | 7.23 |
| Nc1ccn([C@@H]2O[C@H](COP(=O)(N[C@H]3CCOC3=O)Oc3ccccc3)[C@@H](O)C2(F)F)c(=O)n1 (some centres unmarked) [1.2.(1)] | 7.70 |
| O=C1OCCC1NP(=O)(OC[C@H]1O[C@@H](n2ccc(=O)[nH]c2=O)C(F)(F)[C@@H]1O)Oc1ccccc1 (stereo partly drawn) [1.1.(1), ((2R,3R,5R)-5-(2,4-dioxo-3,4-dihydropyrimidin-1(2H)-yl)-4,4-difluoro-3-hydroxytetrahydrofuran-2-yl)methyl phenyl 2-oxotetrahydrofuran-3-ylphosphoramidate] | 6.34 |
| CC(=O)O[C@@H]1[C@@H](COP(=O)(N[C@H]2CCOC2=O)Oc2ccccc2)O[C@@H](n2ccc(N)nc2=O)C1(F)F (stereo partly drawn) [1.2.(2), (2R,3R,5R)-5-(4-amino-2-oxopyrimidin-1(2H)-yl)-4,4-difluoro-2-((((S)-2-oxotetrahydrofuran-3-ylamino)(phenoxy)phosphoryloxy)methyl)tetrahydrofuran-3-yl acetate] | 7.57 |
| CN1CCC(N[P@](=O)(OC[C@H]2O[C@@H](n3ccc(N)nc3=O)C(F)(F)[C@@H]2O)Oc2ccccc2)C1=O (some centres unmarked) [2.2.(1)] | 6.66 |

Tested on: HCV replicon (genotype 1b, Con1 isolate) in human hepatoma cell line Huh7
Assay: not given
Settings: literature value, Murakami et al., J. Biol. Chem. 285(45), 34337-34347 (2010); read-out: EC50 of known inhibitor PSI-7851 (literature); cited from earlier work

| SMILES | pEC50 |
| --- | --- |
| CC(C)OC(=O)[C@H](C)NP(=O)(OC[C@H]1O[C@@H](n2ccc(=O)[nH]c2=O)[C@](C)(F)[C@@H]1O)Oc1ccccc1 (some centres unmarked) [PSI-7851, reference compound] | 7.12 |
